What is called EC50 is the concentration giving half of the maximal effect. Lower therefore signals a more potent agent.

Read-outs that look alike come from different tables or passages of the source. *1 amine or outer side, *2 acyl side, *3 side chain or, on linkers, in order; H or OH if unused. Where a SMILES comes first, the peptide text is derived from it. Bridges are numbered along the chain shown (N, C = ends). Where no end group is shown, it is not given here. [ ]: non-standard residue; d: D form. ξ: configuration not given here. ξαMeNle(6-ylidene) = CC(CCCC=[*:3])(N[*:1])C(=O)[*:2]; X1 = CC(CCCCCCC=[*:3])(N[*:1])C(=O)[*:2]

For test [1], the system named is RG1, epithelial (glioblastoma, GMB).
Experimental: Alamar Blue: 10 μl Alamar Blue solution was added to each well and the plates were incubated for 4 in the incubator. Fluorescence ratio at 535/590 (excitation/emission) was measured in Cytofluor (Millipore) fluorimeter. Blank control was determined by lysis of untreated cells with con 2% of Triton X100, right before adding Alamar Blue solution.
Test [2] deals with 12O53, epithelial (glioblastoma, GMB). The test is classed as cell-based, human. From the text: [drawing 12] a L birradical corresponding to -(CH2)3-CH═CH-(CH2)3- (for the case of NS02) or -(CH2)6-CH═CH-(CH2)3- (for the cases NS10, NS16 and Na05) links both Xs radicals in each sequence, and CPP2 corresponds to penetratine peptide. Cell Lines: NCI-H524, lung (small cell lung cancer, SCLC), ATCC-CRL-5831 RG1, epithelial (glioblastoma, GMB), from surgical specimens from patients GMB-27, epithelial (glioblastoma, GMB), from surgical specimens from patients 12O15, epithelial (glioblastoma, GMB), from surgical specimens from patients 12O53, epithelial (glioblastoma, GMB), from surgical specimens from patients 12O89, epithelial (glioblastoma, GMB), from surgical specimens from patients RG6, epithelial (glioblastoma, GMB), from surgical specimens from patients RG4, epithelial (glioblastoma, GMB), from surgical specimens from patients RG5, epithelial (glioblastoma, GMB), from surgical specimens from patients Cell Culture During the amplification step and the assays adherent cells were rinsed with DPBS (Dulbecco's Phosphate Buffered Saline, Sigma D1283) three times and afterward treated for 5 minutes with trypsin ([0.5 g/ml]/EDTA [0.2 g/ml]) (Gibco-BRL, 15400054) in solution of DPBS at 37° C., and, once detached, transferred in the culturing medium. No-adherent cells were dissociated with Accumax, centrifuged and transferred in the culturing medium. Cells were counted in a Neubauer chamber after labelling with Tripan-Blue. […] NCI-H524 were seeded at a density of 2500 cells/well in 96 well plates; […]6, 12015, 12089 and GBM-27 were dissociated with Accumax and plate on p96 wells covered with Matrigel. After 24 h, the compounds to be tested were added to calculate the dose/response curve at the starting concentration of 100 μM with serial dilutions (1:1). Controls are the untreated cells. Each experiment was performed in triplicate. Cells were incubated during 72-96 h in incubator under CO2 atmosphere at 37° C. Cell viability was measured by means of Alamar Blue® (Biosource DAL1100) and […], after treatment with Propidium iodide and Hoechst (GE Healthcare), following manufacturer instructions. Alamar Blue: 10 μl Alamar Blue solution was added to each well and the plates were incubated for […] in the incubator. Fluorescence ratio at 535/590 (excitation/emission) was measured in Cytofluor (Millipore) fluorimeter. Blank control was determined by lysis of untreated cells with con 2% of Triton X100, right before adding Alamar Blue solution. […] of propidium iodide and/or Hoechst solution was added to each well and the plates were incubated for 10 minutes protected by light. Control samples were represented by untreated cells and cell treated with 100% DMSO. Fluorescent stained cells which corresponds to death cells were detected by Cytell Imaging System and their amount calculated. % Viability=Number of non-blue cells×100/Number of total cells Statistics Data analysis was performed calculating the percentage of cell viability normalized vs. the values of negative control, which was considered equal to 100%. The dose/response curve was fitted through the sigmoidal equation dose-response (variable slope) and the EC50 values were calculated as follow: Y=Bottom+(Top-Bottom)/(1+10^{[(Log EC50-X)*HillSlope]}, where: X is compound concentration (log scale) and Y is the response

Test [3] relates to NCI-H524, lung (small cell lung cancer, SCLC).
Text: Cell Lines: NCI-H524, lung (small cell lung cancer, SCLC), ATCC-CRL-5831 RG1, epithelial (glioblastoma, GMB), from surgical specimens from patients GMB-27, epithelial (glioblastoma, GMB), from surgical specimens from patients 12O15, epithelial (glioblastoma, GMB), from surgical specimens from patients 12O53, epithelial (glioblastoma, GMB), from surgical specimens from patients 12O89, epithelial (glioblastoma, GMB), from surgical specimens from patients RG6, epithelial (glioblastoma, GMB), from surgical specimens from patients RG4, epithelial (glioblastoma, GMB), from surgical specimens from patients RG5, epithelial (glioblastoma, GMB), from surgical specimens from patients Cell Culture […]
During the amplification step and the assays adherent cells were rinsed with DPBS (Dulbecco's Phosphate Buffered Saline, Sigma D1283) three times and afterward treated for 5 minutes with trypsin ([0.5 g/ml]/EDTA [0.2 g/ml]) (Gibco-BRL, 15400054) in solution of DPBS at 37° C., and, once detached, transferred in the culturing medium. […] Cells were counted in a Neubauer chamber after labelling with Tripan-Blue. […]
Cells were incubated during 72-96 h in incubator under CO2 atmosphere at 37° C. Cell viability was measured by means of Alamar Blue® (Biosource DAL1100) and CYTELL™, after treatment with Propidium iodide and Hoechst (GE Healthcare), following manufacturer instructions. […]
Test [4] relates to 12O15, epithelial (glioblastoma, GMB). Format: cell-based, human. From the text:
(§1) [drawing 12] a L birradical corresponding to —(CH2)3—CH═CH—(CH2)3— (for the case of NS02) or —(CH2)6—CH═CH—(CH2)3— (for the cases NS10, NS16 and Na05) links both Xs radicals in each sequence, and CPP2 corresponds to penetratine peptide. Cell Lines: NCI-H524, lung (small cell lung cancer, SCLC), ATCC-CRL-5831 RG1, epithelial (glioblastoma, GMB), from surgical specimens from patients GMB-27, epithelial (glioblastoma, GMB), from surgical specimens from patients 12O15, epithelial (glioblastoma, GMB), from surgical specimens from patients 12O53, epithelial (glioblastoma, GMB), from surgical specimens from patients 12O89, epithelial (glioblastoma, GMB), from surgical specimens from patients RG6, epithelial (glioblastoma, GMB), from surgical specimens from patients RG4, epithelial (glioblastoma, GMB), from surgical specimens from patients RG5, epithelial (glioblastoma, GMB), from surgical specimens from patients Cell Culture
(§2) Cell lines NCI-H524 were cultured in incubator at 37° C. in RPMI-1640 (Sigma R8758) medium with 10% of fetal bovine serum inactivated (FBS) and 2 mM glutamine (Sigma G7513). Cell line RG1, RG4, RG5, RG6, 12015, 12089 and GBM-27 were cultured in incubator under CO2 (6%) at 37° C. in complete medium (Neurobasal+B27+Glutamax+Growth factors).
(§3) During the amplification step and the assays adherent cells were rinsed with DPBS (Dulbecco's Phosphate Buffered Saline, Sigma D1283) three times and afterward treated for 5 minutes with trypsin ([0.5 g/ml]/EDTA [0.2 g/ml]) (Gibco-BRL, 15400054) in solution of DPBS at 37° C., and, once detached, transferred in the culturing medium. No-adherent cells were dissociated with Accumax, centrifuged and transferred in the culturing medium. Cells were counted in a Neubauer chamber after labelling with Tripan-Blue.
(§4) NCI-H524 were seeded at a density of 2500 cells/well in 96 well plates; RG1, RG4, RG5, RG6, 12015, 12089 and GBM-27 were dissociated with Accumax and plate on p96 wells covered with Matrigel. After 24 h, the compounds to be tested were added to calculate the dose/response curve at the starting concentration of 100 μM with serial dilutions (1:1). Controls are the untreated cells. Each experiment was performed in triplicate.
(§5) Cells were incubated during 72-96 h in incubator under CO2 atmosphere at 37° C. Cell viability was measured by means of Alamar Blue® (Biosource DAL1100) and CYTELL™, after treatment with Propidium iodide and Hoechst (GE Healthcare), following manufacturer instructions.
(§6) Alamar Blue: 10 μl Alamar Blue solution was added to each well and the plates were incubated for […] in the incubator. Fluorescence ratio at 535/590 (excitation/emission) was measured in Cytofluor (Millipore) fluorimeter. Blank control was determined by lysis of untreated cells with con 2% of Triton X100, right before adding Alamar Blue solution.
(§7) CYTELL™: 10 μl of propidium iodide and/or Hoechst solution was added to each well and the plates were incubated for 10 minutes protected by light. Control samples were represented by untreated cells and cell treated with 100% DMSO. Fluorescent stained cells which corresponds to death cells were detected by Cytell Imaging System and their amount calculated. % Viability=Number of non-blue cells×100/Number of total cells Statistics
(§8) Data analysis was performed calculating the percentage of cell viability normalized vs. the values of negative control, which was considered equal to 100%. The dose/response curve was fitted through the sigmoidal equation dose-response (variable slope) and the EC50 values were calculated as follow: Y=Bottom+(Top−Bottom)/(1+10^{[(Log EC50−X)*HillSlope]}, where: X is compound concentration (log scale) and Y is the response

In test [5] the test system is GBM27 (GMB-27), epithelial (glioblastoma). Format: cell-based, human.
Text: as §1, §2, §3, §4, §5, §6, §7, §8

Test [6] deals with RG4, epithelial (glioblastoma, GMB). The test is classed as cell-based, human.
Text: as §1, §2, §3, §4, §5, §6, §7, §8

Test [7] concerns RG6, epithelial (glioblastoma, GMB). The test is classed as cell-based, human.
Text: as §1, §2, §3, §4, §5, §6, §7, §8

The test system of test [8] is 12O89, epithelial (glioblastoma, GMB). Format: cell-based, human.
Text: as §1, §2, §3, §4, §5, §6, §7, §8

Test [9] relates to RG5, epithelial (glioblastoma, GMB). Format: cell-based, human.
Text: as §1, §2, §3, §4, §5, §6, §7, §8

For another test, the system named is tumor cell lines. As to the kind of experiment: Anti-cancer activity in tumor cell lines (summary statements). Format: cell-based. The method, then: NCI-H524 were seeded at a density of 2500 cells/well in 96 well plates; […]6, 12015, 12089 and GBM-27 were dissociated with Accumax and plate on p96 wells covered with Matrigel. After 24 h, the compounds to be tested were added to calculate the dose/response curve at the starting concentration of 100 μM with serial dilutions (1:1). Controls are the untreated cells. Each experiment was performed in triplicate. Cells were incubated during 72-96 h in incubator under CO2 atmosphere at 37° C. Cell viability was measured by means of Alamar Blue® (Biosource DAL1100) and […], after treatment with Propidium iodide and Hoechst (GE Healthcare), following manufacturer instructions. Data analysis was performed calculating the percentage of cell viability normalized vs. the values of negative control, which was considered equal to 100%. The dose/response curve was fitted through the sigmoidal equation dose-response (variable slope) and the EC50 values were calculated as follow: Y=Bottom+(Top-Bottom)/(1+10^{[(Log EC50-X)*HillSlope]}, where: X is compound concentration (log scale) and Y is the response

Turning to `CC(C)C[C@H](NC(=O)[C@H](Cc1ccccc1)NC(=O)C1(C)CCCC=CCCCC(C)(NC(=O)[C@H](CC(N)=O)NC(=O)[C@H](CCCNC(=N)N)NC(=O)[C@H](CCCNC(=N)N)NC(=O)[C@H](CCC(N)=O)NC(=O)[C@@H](N)CCCNC(=N)N)C(=O)N[C@@H](CC(C)C)C(=O)N[C@@H](CCCNC(=N)N)C(=O)N[C@@H](CO)C(=O)N1)C(=O)N[C@H](C(=O)N[C@@H](CC(C)C)C(=O)N[C@@H](CCCNC(=N)N)C(=O)N[C@@H](CC(=O)O)C(=O)N[C@@H](Cc1c[nH]cn1)C(N)=O)[C@@H](C)O` (stereo partly shown) [IDP-NS02] (H-RQRRN[ξαMeNle(6-ylidene)]LRS[ξαMeNle(6-ylidene)]FLTLRDH-NH2; staple 6-10; N-terminus and C-terminus assumed), the EC50 in test [1] is greater than 100 µM; in test [2], greater than 100 µM; in [3], roughly 5 µM.

For the compound `CC[C@H](C)[C@@H]1NC(=O)[C@H](C(C)C)NC(=O)[C@H](C(C)C)NC(=O)C(C)(NC(=O)[C@H](C)NC(=O)[C@H](C)N)CCCCCCC=CCCCC(C)(C(=O)N[C@H](C(=O)N[C@@H](CCC(=O)O)C(=O)N[C@@H](Cc2ccc(O)cc2)C(=O)N[C@H](C(=O)N[C@@H](Cc2c[nH]cn2)C(=O)N[C@@H](CO)C(N)=O)C(C)C)[C@@H](C)O)NC(=O)[C@H](CCCCN)NC(=O)[C@H](CCCCN)NC(=O)[C@H](CC(C)C)NC1=O` (stereo partly shown) [IDP-NS10] (H-AA[X1]VVILKK[ξαMeNle(6-ylidene)]TEYVHS-NH2; staple 3-10; N-terminus and C-terminus assumed), the concentration giving a half-maximal response (EC50) in test [1] is roughly 7 µM; in test [2], roughly 50 µM; in test [4] it was roughly 10 µM; in test [5] it was roughly 7.5 µM; in test [6], roughly 5 µM; in [7] it was roughly 5 µM. In addition, the values for the EC50 in [8] and in test [9] were roughly 4 µM and roughly 7 µM, respectively.

For the compound `CC(C)C[C@@H]1NC(=O)[C@H](Cc2ccccc2)NC(=O)[C@H](CO)NC(=O)[C@H](CO)NC(=O)C(C)(NC(=O)[C@H](CC(C)C)NC(=O)[C@H](CC(=O)O)NC(=O)[C@H](CC(N)=O)NC(=O)[C@H](CCCNC(=N)N)NC(=O)[C@H](CCCNC(=N)N)NC(=O)[C@H](CCC(N)=O)NC(=O)[C@@H](N)CCCNC(=N)N)CCCCCCC=CCCCC(C)(C(=O)N[C@@H](CC(=O)O)C(=O)N[C@@H](Cc2c[nH]cn2)C(N)=O)NC(=O)[C@H](CC(C)C)NC(=O)[C@H]([C@@H](C)O)NC1=O` (stereo partly shown) [IDP-NS16] (H-RQRRNDL[X1]SSFLTL[ξαMeNle(6-ylidene)]DH-NH2; staple 8-15; N-terminus and C-terminus assumed), the EC50 was roughly 15 µM in test [1] and roughly 10 µM in [2].

As to `CC(C)C[C@H](NC(=O)[C@H](CC(=O)O)NC(=O)[C@H](CC(N)=O)NC(=O)[C@H](CCCNC(=N)N)NC(=O)[C@@H](N)CCCNC(=N)N)C(=O)N[C@@H](CCCNC(=N)N)C(=O)N[C@@H](CO)C(=O)NC1(C)CCCCCCC=CCCCC(C)(C(=O)N[C@H](C(=O)N2CCC[C@H]2C(N)=O)C(C)C)NC(=O)[C@H](CC(=O)O)NC(=O)[C@H](CCCNC(=N)N)NC(=O)[C@H](CC(C)C)NC(=O)[C@H]([C@@H](C)O)NC(=O)[C@H](CC(C)C)NC(=O)[C@H](Cc2ccccc2)NC1=O` (stereo partly shown) [Na05] (H-RRNDLRS[X1]FLTLRD[ξαMeNle(6-ylidene)]VP-NH2; staple 8-15; N-terminus and C-terminus assumed), the 50% effective concentration (EC50) in test [1] was roughly 10 µM.

For the compound “AAKVVILKKATEYVHS-NH2 (C-terminus assumed) [IDP-wtLN10, reference compound]”, the half-maximal effective concentration (EC50) in [1] and in test [2] was greater than 100 µM in each case. The “inhibiting cancer cell proliferation (in words)” value with tumor cell lines was “not effective”.

“RQIKIWFQNRRMKWKKRQRRNDLRSSFLTLRDHVP-NH2 [NLCa02]” gave an EC50 in test [1] (RG1 cell line, 72-96 h incubation) of roughly 5 µM. Also, the “anti-cancer activity (in words)” value with tumor cell lines (tumor cell lines) is “anti-cancer activity”.

On to “RRRRRRRAAKVVILKKATEYVHS-NH2 (C-terminus assumed) [IDP-intwtLN10, reference compound]”, for which the EC50 in [1] and in test [2] was greater than 100 µM in each case. Besides, the “inhibiting cancer cell proliferation (in words)” value in the test on tumor cell lines is “inactive”.

For the origin of these results see patent publication US11352395B2, “Anticancer peptides” (IDP DISCOVERY PHARMA, S.L., priority 2017, dated 2022).
